Test results taken from patent EP2441755A1 (Almirall, S.A., priority 2010, dated 2012).
pIC50: −log10 of the molar value. Where two headings read alike, the source gives them in different places.

Assays:
human JAK1 (aa 850-1154) = target: T1, human JAK1 (aa 850-1154) (Homo sapiens, UniProt P23458); assay: In vitro JAK kinase assay (TR-FRET), JAK1; format: biochemical; settings: ATP 3 µM, poly (GT)-Biotin 60 nM, 30 minutes at room temperature
T1 construct: human JAK1 (aa 850-1154); GST (N); purchased Carna Bioscences; host or cells: baculovirus expression system
T1 sequence (P23458 850-1154): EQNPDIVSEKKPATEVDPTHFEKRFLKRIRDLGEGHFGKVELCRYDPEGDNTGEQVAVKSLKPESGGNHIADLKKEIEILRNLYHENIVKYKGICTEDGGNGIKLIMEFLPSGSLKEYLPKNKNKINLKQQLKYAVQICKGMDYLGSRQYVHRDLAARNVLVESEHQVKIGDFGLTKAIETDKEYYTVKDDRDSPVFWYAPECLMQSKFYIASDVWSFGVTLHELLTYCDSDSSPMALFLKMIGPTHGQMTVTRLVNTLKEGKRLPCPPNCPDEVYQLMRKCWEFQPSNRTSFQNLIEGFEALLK
Method: (§1) In vitro JAK kinase Assays
(§2) Compounds were screened for their ability to inhibit JAK1, JAK2 and JAK3 using the assays as indicated below.
(§3) The catalytic domains of human JAK1 (aa 850-1154), JAK2 (aa 826-1132), JAK3 (aa 795-1124) and Tyk2 (aa 871-1187) were expressed as N-terminal GST-fusion proteins using a baculovirus expression system and were purchased from Carna Bioscences. The enzymatic activity was assayed using as substrate a biotinylated peptide, poly (GT)-Biotin (CisBio). The peptide concentration in the reactions was 60 nM for JAK1, 20 nM for JAK2, 140 nM for JAK3 and 50 nM for Tyk2. The degree of phosphorylation was detected by TR-FRET (time-resolved fluorescence energy transfer).
(§4) IC50s of compounds were measured for each kinase in a reaction mixture containing the enzyme, ATP and the peptide in 8 mM MOPS (pH 7.0), 10 mM MgCl2, 0.05% β-mercaptoethanol, 0.45 mg/mL BSA. The ATP concentration in the reactions was 3 µM for JAK1, 0.2 µM for JAK2, 0.6 µM for JAK3 and 1.8 µM for Tyk2. The enzymatic reactions took place for 30 minutes at room temperature. Then, the reactions were stopped with 20 µL of quench detection buffer (50 mM HEPES, 0.5 M KF, EDTA 0.25 M, 0.1% (w/v) BSA, pH 7.5) containing 0.115 µg/mL of anti-phosphoTyr (PT66)-Cryptate (CisBio) and a variable concentration of SA-XL665 (CisBio) to keep the SA-B ratio constant. Incubate for 3 h and read on Victor 2V spectrofluorometer (PerkinElmer) set to read fluorescence resonance energy transfer.

JAK2 (aa 826-1132) = target: T2, JAK2 (aa 826-1132) (Homo sapiens, UniProt O60674); assay: In vitro JAK kinase assay (TR-FRET), JAK2; format: biochemical; settings: ATP 0.2 µM, poly (GT)-Biotin 20 nM, 30 minutes at room temperature
T2 construct: JAK2 (aa 826-1132); GST (N); purchased Carna Bioscences; host or cells: baculovirus expression system
T2 sequence (O60674 826-1132): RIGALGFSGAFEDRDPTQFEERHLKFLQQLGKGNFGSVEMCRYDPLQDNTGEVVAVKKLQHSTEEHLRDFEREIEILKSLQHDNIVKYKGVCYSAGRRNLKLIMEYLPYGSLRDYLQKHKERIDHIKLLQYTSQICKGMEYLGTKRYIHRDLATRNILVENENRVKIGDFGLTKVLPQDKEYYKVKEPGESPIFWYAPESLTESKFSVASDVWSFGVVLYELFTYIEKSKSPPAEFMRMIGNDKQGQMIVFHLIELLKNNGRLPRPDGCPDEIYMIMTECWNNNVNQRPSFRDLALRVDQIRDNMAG
Method: as §1, §2, §3, §4

JAK3 (aa 795-1124) = target: T3, JAK3 (aa 795-1124) (Homo sapiens, UniProt P52333); assay: In vitro JAK kinase assay (TR-FRET), JAK3; format: biochemical; settings: ATP 0.6 µM, poly (GT)-Biotin 140 nM, 30 minutes at room temperature
T3 construct: JAK3 (aa 795-1124); GST (N); purchased Carna Bioscences; host or cells: baculovirus expression system
T3 sequence (P52333 795-1124): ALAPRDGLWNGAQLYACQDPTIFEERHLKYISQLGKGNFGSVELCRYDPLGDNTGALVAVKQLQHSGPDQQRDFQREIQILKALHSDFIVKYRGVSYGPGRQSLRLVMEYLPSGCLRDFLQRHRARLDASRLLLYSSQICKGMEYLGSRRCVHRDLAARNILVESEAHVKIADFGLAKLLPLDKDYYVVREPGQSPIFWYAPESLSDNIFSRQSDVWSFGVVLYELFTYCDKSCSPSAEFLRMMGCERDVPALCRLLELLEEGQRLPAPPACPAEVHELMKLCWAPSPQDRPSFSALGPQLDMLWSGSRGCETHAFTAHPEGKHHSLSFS
Method: as §1, §2, §3, §4

[1] = target: T4, Recombinant human full-length Syk (Homo sapiens, UniProt P43405); assay: Syk enzyme assay - radioactive filtration kinase assay; format: biochemical
T4 construct: Recombinant human full-length Syk was supplied by Millipore; purchased Millipore
Method: Syk Enzyme assay- Radioactive filtration kinase assay
Recombinant human full-length Syk was supplied by Millipore. The activity of Syk kinase was assessed using a radioactive filtration kinase assay. […] The reaction was initiated by the addition of 14.5 µl of 0.36 µCi [γ-^33P] ATP (10 mCi/ml, PerkinElmer). This was prepared in a half-area NBS plate (Corning) and allowed to stand at room temperature for 40 min. 15 µl of reaction mixture was transferred to a filter plate (Millipore) previously pre-wetted with a solution of 75 mM phosphoric acid. The reaction was terminated with the addition of 200 µl phosphoric acid. The filter plate was washed three times under vacuum on a vacuum manifold (Millipore cat# MSVMHTS00) at 8" Hg vacuum level with 200 µl phosphoric acid per wash. 30 µl Optiphase™ Supermix (PerkinElmer) was added to each test well and allowed to incubate for at least 1 h before counting. Radioactivity counting was performed in a Wallac MicroBeta®, and the tyrosine phosphorylation activity by Syk was calculated.

LAD2 cells = LAD2 cells assay (degranulation, β-hexosaminidase release); format: cell-based; settings: Homo sapiens; for pIC50: 0.5 h, IgE-sensitized LAD2 cells, 30 min with compound, activated with 125 ng/ml streptavidin, released β-hexosaminidase, read-out: LAD2IC50
Description: LAD2 is a human mast cell line depending on stem cell factor for its survival, maturation and differentiation. This mast cell line was established by the NIH from bone marrow aspirates from a patient with mast cell sarcoma. LAD2 cells resemble CD34+ - derived human mast cells as they have granules containing tryptase, histamine and β-hexosaminidase. They also express c-kit and FcεRI (Kirshenbaum, et al., Leukemia Research 27: 677-682, 2003).
Sensitization of LAD2 cells
Cells were sensitized (0.2x10^6 cells/ml) in its normal growth factor (Complete StemPro-34 SFM, Gibco 10639-011 containing StemPro-34 nutrient supplement (1/40); glutamine (2 mM) and supplemented with 100 ng/ml SCF) by adding 100 ng/ml of biotin-labeled IgE (USBiological) overnight (16-18 h, 37º, 5% CO2) in a humidified atmosphere (90%).
Compounds were prepared from a 10^-2M stock in 100% DMSO to give seven successive 1/3 dilutions in DMSO. From each concentration, 2 further 1/10 dilutions were prepared in release buffer (137 mM NaCl, 2.70 mM KCI, 0.4 mM NaH2PO4, 5.6 mM (D)-glucose, 1.8 mM CaCl2, 1.3 mM MgSO4, 0.025% BSA). Finally, 5 µl from each diluted concentration were transferred into the assay plate (flat 96-well Nunc). The final compound concentrations tested ranged from 1x10^-5M to […] with a final proportion of DMSO in the assay of 0.1 %. Control wells were treated with 0.1 % DMSO.
Sensitized LAD2 cells were centrifuged (300 g, 3 min, R.T.) and washed 2 times with release buffer. Cells were resuspended in release buffer and adjusted to a density of 0.2x10^6/ml. 45 µl of the adjusted cells were transfered to the assay plate (∼10,000cells/well) containg 5 µl of the final compound concentrations. LAD2 cells were incubated with the compound for 30 min (37 °C, 5% CO2 90% of humidity) and then activated with 125 ng/ml of streptavidin (Pierce 21125) for 30 min (37 °C, 5% CO2, 90% of humidity). After the activation, cells were centrifuged at 1200 g, 10 min, 12 °C and supernatats were removed and transfered to another well for determination of released β-hexosaminidase. Empty wells were filled with 50 µl of release buffer for determination of intracellular β-hexosaminidase. Cells were lysed with 2 cycles of freeze-thaw.
Cells were incubated for 90 minutes, 37 °C with 1 mM β-hexosaminidase substrate (p-nitrophenyl N-acetyl-D-glucosamide, in citric buffer, pH 4.5). Reaction was stopped with 0.4 M glycine solution (pH 10.0) and the plate is read immediately at 405 nm.

[2] = Syk 1nM final, poly-GT 100 µg/ml, [γ-33P] ATP, 40 min at room temperature, read-out: Syk IC50

Row | pIC50 (human JAK1 (aa 850-1154)) | pIC50 (JAK2 (aa 826-1132)) | pIC50 (JAK3 (aa 795-1124)) | pIC50 [1, 2] | SMILES | pIC50 [1] | pIC50 (LAD2 cells) | pIC50 ([1]; read-out: Syk IC50, Syk 1nM final, poly-GT 100 µg/ml, [γ-33P] ATP, 40 min at room temperature) | IC50 (LAD2 cells; LAD2, 0.5 h, read-out: LAD2IC50(nM)) [nM]
1 | < 6.00 | > 7.00 | 6.00 to 7.00 |  | COc1cccc(CC(=O)Nc2cc(Nc3cnccn3)nc(-c3ccnc(N4CCNCC4)c3)c2)c1 [Example 78, 2-(3-Methoxyphenyl)-N-[2'-piperazin-1-yl-6-(pyrazin-2-ylamino)-2,4'-bipyridin-4-yl]acetamide] |  |  |  | 
2 | < 6.00 | > 7.00 | 6.00 to 7.00 | 8.22 | O=C(Nc1cc(Nc2cnccn2)nc(-c2ccnc(N3CCNCC3)c2)c1)c1ccc(F)cc1 [Example 80, 4-Fluoro-N-[2'-piperazin-1-yl-6-(pyrazin-2-ylamino)-2,4'-bipyridin-4-yl]benzamide] |  | 6.54 |  | 
3 |  | > 7.00 | 6.00 to 7.00 | 8.22 | O=C(O)c1cccc(C(=O)Nc2cc(Nc3cnccn3)nc(-c3ccnc(N4CCNCC4)c3)c2)c1 [Example 88, 3-({[2'-Piperazin-1-yl-6-(pyrazin-2-ylamino)-2,4'-bipyridin-4-yl]amino}carbonyl) benzoic acid] |  | 7.09 |  | 
4 |  |  |  | 7.80 | O=C(C[C@H](Cc1ccccc1)C(=O)O)Nc1cc(Nc2cnccn2)nc(-c2ccnc(N3CCNCC3)c2)c1 [Example 98, (2S)-2-Benzyl-4-oxo-4-{[2'-piperazin-1-yl-6-(pyrazin-2-ylamino)-2,4'-bipyridin-4-yl]amino}butanoic acid] |  | 7.09 |  | 
5 | < 6.00 | 6.00 to 7.00 | 6.00 to 7.00 |  | O=C(O)C[C@H](Cc1ccccc1)C(=O)Nc1cc(Nc2cnccn2)nc(-c2ccnc(N3CCNCC3)c2)c1 [Example 100, (3S)-3-Benzyl-4-oxo-4-{[2'-piperazin-1-yl-6-(pyrazin-2-ylamino)-2,4'-bipyridin-4-yl]amino}butanoic acid] |  |  |  | 
6 |  |  |  | 8.10 | CC(=O)Nc1cc(Nc2cnccn2)nc(-c2ccnc(N3CCNCC3)c2)c1 [Example 101, N-[2'-Piperazin-1-yl-6-(pyrazin-2-ylamino)-2,4'-bipyridin-4-yl]acetamide] |  | 6.93 |  | 
7 |  |  |  | 7.89 | O=C(O)C[C@H](Cc1ccccc1)NC(=O)c1cccc(C(=O)Nc2cc(Nc3cnccn3)nc(-c3ccnc(N4CCNCC4)c3)c2)c1 [Example 109, (3S)-4-Phenyl-3-{[3-({[2'-piperazin-1-yl-6-(pyrazin-2-ylamino)-2,4'-bipyridin-4-yl]amino}carbonyl)benzoyl]amino}butanoic acid] |  | 7.00 |  | 
8 |  |  |  | 8.09 | OC1CCN(c2cc(Nc3cnccn3)nc(-c3ccnc(N4CCNCC4)c3)c2)CC1 [Example 130, 1-(2'-(Piperazin-1-yl)-6-(pyrazin-2-ylamino)-2,4'-bipyridin-4-yl)piperidin-4-ol] |  | 6.40 |  | 

The next lines start with the compound.

Row | SMILES | pIC50 (human JAK1 (aa 850-1154)) | pIC50 (JAK2 (aa 826-1132)) | pIC50 (JAK3 (aa 795-1124)) | pIC50 [1, 2] | pIC50 [1] | pIC50 (LAD2 cells) | pIC50 ([1]; read-out: Syk IC50, Syk 1nM final, poly-GT 100 µg/ml, [γ-33P] ATP, 40 min at room temperature) | IC50 (LAD2 cells; LAD2, 0.5 h, read-out: LAD2IC50(nM)) [nM]
9 | O=C(O)c1ccc(C(=O)Nc2cc(Nc3cnccn3)nc(-c3ccnc(N4CCNCC4)c3)c2)cc1 [Example 79, 4-({[2'-Piperazin-1-yl-6-(pyrazin-2-ylamino)-2,4'-bipyridin-4-yl]amino}carbonyl) benzoic acid] |  | > 7.00 | 6.00 to 7.00 |  | 8.10 | 6.85 |  | 
10 | O=C(Nc1cc(Nc2cnccn2)nc(-c2ccnc(N3CCNCC3)c2)c1)c1cccnc1 [Example 85, N-[2'-Piperazin-1-yl-6-(pyrazin-2-ylamino)-2,4'-bipyridin-4-yl]nicotinamide] | < 6.00 | > 7.00 | 6.00 to 7.00 |  | 8.22 | 6.91 |  | 
11 | O=C(Nc1cc(Nc2cnccn2)nc(-c2ccnc(N3CCNCC3)c2)c1)c1cncnc1 [Example 95, N-[2'-Piperazin-1-yl-6-(pyrazin-2-ylamino)-2,4'-bipyridin-4-yl]pyrimidine-5-Carboxamide] |  |  |  |  | 8.05 | 6.49 |  | 
12 | O=C(Nc1cc(Nc2cnccn2)nc(-c2ccnc(N3CCNCC3)c2)c1)c1ccc(C(=O)O)nc1 [Example 96, 5-({[2'-Piperazin-1-yl-6-(pyrazin-2-ylamino)-2,4'-bipyridin-4-yl]amino}carbonyl) pyridine-2-Carboxylic acid] |  |  |  |  | 8.00 | 6.70 |  | 
13 | Nc1cc(Nc2cnccn2)nc(-c2ccnc(N3CCNCC3)c2)c1 [Example 127, 2'-Piperazin-1-yl-N^6-pyrazin-2-yl-2,4'-bipyridine-4,6-diamine] |  |  |  |  | 8.40 | 6.93 |  | 
14 | CNc1cc(Nc2cnccn2)nc(-c2ccnc(N3CCNCC3)c2)c1 [Example 128, N^4-Methyl-2'-(piperazin-1-yl)-N^6-(pyrazin-2-yl)-2,4'-bipyridine-4,6-diamine] |  |  |  |  | 8.39 | 6.72 |  | 
15 | Nc1cc(Nc2cnccn2)nc(-c2cncc(N3CCNCC3)c2)c1 [Example 138] |  |  |  |  |  |  | 8.60 | 150
